“Also recorded” adds a separate entry of the source.

Data on one compound can be found in US20070244107A1, “Method of Treating Atherosclerosis, Dyslipidemias and Related Conditions” (priority 2004, published 2007).

The series concerns male C57B16 mice. Put plainly: Flushing via laser Doppler procedure in mice. The settings on record: relative to nicotinic acid; mouse model. It is filed as in vivo. As for the experimental part:
To measure flushing, male C57B16 mice (approx. 25 g) are anesthetized using 10 mg/mkg Nembutal sodium. After ten minutes the animal is placed under the laser and the ear is folded back to expose the ventral side. The laser is positioned in the center of the ear and focused to an intensity of 8.4-9.0 V (which is generally approx. 4.5 cm above the ear). Data acquisition is initiated with a 15 by 15 image format, auto interval, 60 images and a 20 sec time delay with a medium resolution. Test compounds are administered following the 10th image via injection into the peritoneal space. Images 1-10 are considered the animal's baseline and data is normalized to an average of the baseline mean intensities.

As for `C1Cc2[nH]nc(-c3nnn[nH]3)c2C1` [compound of formula I, 3-(2H-tetrazol-5-yl)-1,4,5,6-tetrahydrocyclopentapyrazole], the flushing effect result was “reduced flushing effect relative to nicotinic acid; also recorded: reduced flushing effect relative to nicotinic acid, but flushing is not completely eliminated”.
